molecular target: T1, Full-length human PRMT3 (Homo sapiens, UniProt O60678); experiment: PRMT3 biochemical assay (3H-SAM Flashplate, peptide substrate)
T1 construct: GST-tagged PRMT3; made in house; host or cells: E. coli BL21(DE3) Gold (pGEX-KG)
Procedure, shortened: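 GST-tagged full-length PRMT3 (0.5 nM, E. coli-expressed) preincubated 30 min at room temperature with compound, then 330 nM biotinylated peptide, 100 nM 3H-SAM plus 1.8 uM SAM in Bicine pH 7.6, 2% DMSO.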

T1 sequence (O60678 with tags, fused parts or gaps): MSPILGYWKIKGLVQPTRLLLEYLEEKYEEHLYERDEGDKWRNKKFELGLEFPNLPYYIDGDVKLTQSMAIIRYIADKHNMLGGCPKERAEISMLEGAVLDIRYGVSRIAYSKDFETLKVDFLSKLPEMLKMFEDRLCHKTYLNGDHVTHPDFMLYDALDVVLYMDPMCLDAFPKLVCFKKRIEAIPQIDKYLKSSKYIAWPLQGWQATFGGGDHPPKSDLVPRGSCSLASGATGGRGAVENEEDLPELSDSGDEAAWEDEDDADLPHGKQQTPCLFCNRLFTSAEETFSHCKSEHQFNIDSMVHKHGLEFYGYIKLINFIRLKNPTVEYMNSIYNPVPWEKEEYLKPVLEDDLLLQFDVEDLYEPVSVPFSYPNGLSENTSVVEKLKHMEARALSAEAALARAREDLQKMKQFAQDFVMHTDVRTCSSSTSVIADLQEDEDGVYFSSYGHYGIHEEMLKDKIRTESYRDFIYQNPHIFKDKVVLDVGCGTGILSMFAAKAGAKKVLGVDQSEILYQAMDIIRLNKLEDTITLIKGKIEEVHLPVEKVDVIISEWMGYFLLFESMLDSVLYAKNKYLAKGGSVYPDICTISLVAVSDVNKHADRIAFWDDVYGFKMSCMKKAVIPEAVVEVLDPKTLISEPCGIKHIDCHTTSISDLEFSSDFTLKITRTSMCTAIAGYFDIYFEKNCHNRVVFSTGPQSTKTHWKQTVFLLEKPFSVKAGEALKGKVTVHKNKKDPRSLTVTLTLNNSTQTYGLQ

Compared with `CN(CCN)Cc1cn[nH]c1-c1ccc(F)cc1` [Compound 1], `CN(CCN)Cc1cnn(C)c1-c1ccc(F)cc1` [Compound 4] is higher in IC50: 1.01 to 3 µM for the first, greater than 10 µM for the second. The first is the more potent here.

First: CNCCN(C)Cc1c[nH]nc1-c1ccc(F)cc1 [Compound 2, N^1-((3-(4-fluorophenyl)-1H-pyrazol-4-yl)methyl)-N^1,N^2-dimethylethane-1,2-diamine]
Second: CCNCCN(C)Cc1c[nH]nc1-c1ccc(F)cc1 [Compound 60]
The IC50 of the first is lower: 3.01 to 10 µM for the first, greater than 10 µM for the second. The first is the more potent here.

`CN(CCN)Cc1cn(C)nc1-c1ccc(F)cc1` [Compound 3] and `CN(CCN)Cc1cn(CCO)nc1-c1ccc(F)cc1` [Compound 66] cannot be ordered by IC50: greater than 10 µM for the first, greater than 10 µM for the second.

`CCN(CCNC)Cc1c[nH]nc1-c1ccc(F)cc1` [Compound 9] and `CCN(CCN)Cc1c[nH]nc1-c1ccc(F)cc1` [Compound 62] fall in the same range of IC50: 3.01 to 10 µM for the first, 3.01 to 10 µM for the second.

`CNCCN(C)Cc1cnn(C)c1-c1ccc(F)cc1` [Compound 10] and `CNCCN(C)Cc1cnn(CC2CCOCC2)c1-c1ccc(F)cc1` [Compound 12] cannot be ordered by IC50: greater than 10 µM for the first, greater than 10 µM for the second.

`CNCCN(C)Cc1cn(CC2CCOCC2)nc1-c1ccc(F)cc1` [Compound 11] and `CN(CCN)Cc1cn(CC2COC2)nc1-c1ccc(F)cc1` [Compound 79] cannot be ordered by IC50: greater than 10 µM for the first, greater than 10 µM for the second.

Compared with `CNCCN(C)Cc1c[nH]nc1-c1cccc(N)c1` [Compound 32], `CNCCN(C)Cc1c[nH]nc1-c1cccc(C(C)=O)c1` [Compound 44] is higher in IC50: 1.01 to 3 µM for the first, 3.01 to 10 µM for the second.

First: CNCCN(C)Cc1c[nH]nc1-c1ccc(CC#N)cc1 [Compound 34]
Second: CN(CCN)Cc1c[nH]nc1-c1ccc(C#N)cc1 [Compound 68]
The IC50 of the first is higher: greater than 10 µM for the first, 3.01 to 10 µM for the second. The second is the more potent here.

`CNCCN(C)Cc1c[nH]nc1-c1ccccc1O` [Compound 35] and `CNCCN(C)Cc1c[nH]nc1-c1ccccc1F` [Compound 48] cannot be ordered by IC50: greater than 10 µM for the first, greater than 10 µM for the second.

`CNCCN(C)Cc1c[nH]nc1-c1ccccc1Oc1ccccc1` [Compound 36] and `CNCCN(C)Cc1c[nH]nc1-c1ccccc1-c1ccccc1` [Compound 46] cannot be ordered by IC50: greater than 10 µM for the first, greater than 10 µM for the second.

First: CNCCN(C)Cc1c[nH]nc1-c1cccc(OC(F)(F)F)c1 [Compound 39]
Second: CN(CCN)Cc1c[nH]nc1-c1ccc(OC(F)(F)F)cc1 [Compound 93]
The IC50 of the first is higher: greater than 10 µM for the first, 3.01 to 10 µM for the second. The second is the more potent here.

First: CNCCN(C)Cc1c[nH]nc1-c1ccccc1NS(C)(=O)=O [Compound 41]
Second: CNCCN(C)Cc1c[nH]nc1-c1cccc2ccccc12 [Compound 57]
The IC50 of the first is higher: greater than 10 µM for the first, 3.01 to 10 µM for the second. The second is the more potent here.

Compared with `CNCCN(C)Cc1c[nH]nc1-c1cccc(NC(C)=O)c1` [Compound 42], `CNCCN(C)Cc1c[nH]nc1-c1ccc2ccccc2c1` [Compound 58] is higher in IC50: 1.01 to 3 µM for the first, 3.01 to 10 µM for the second. The first is the more potent here.

First: CNCCN(C)Cc1c[nH]nc1-c1ccc(C(=O)c2ccccc2)cc1 [Compound 45]
Second: CNCCN(C)Cc1c[nH]nc1-c1ccc(-c2ccccc2)cc1 [Compound 47]
The IC50 of the first is higher: 3.01 to 10 µM for the first, 0.101 to 1 µM for the second. The second is the more potent here.

First: CNCCN(C)Cc1c[nH]nc1-c1ccc(F)cc1F [Compound 49]
Second: CNCCN(C)Cc1c[nH]nc1-c1cc(F)ccc1F [Compound 50]
The IC50 of the first is lower: 3.01 to 10 µM for the first, greater than 10 µM for the second.

`CNCCN(C)Cc1c[nH]nc1-c1ccc(F)c(F)c1` [Compound 51] and `CNCCN(C)Cc1c[nH]nc1-c1ccc(OC)c(F)c1` [Compound 52] fall in the same range of IC50: 3.01 to 10 µM for the first, 3.01 to 10 µM for the second.

`CNCCN(C)Cc1c[nH]nc1-c1cc(Cl)ccc1OC` [Compound 53] and `CNCCN(C)Cc1c[nH]nc1-c1ccc(OC)cc1OC` [Compound 55] cannot be ordered by IC50: greater than 10 µM for the first, greater than 10 µM for the second.

`CNCCN(C)Cc1c[nH]nc1-c1cccc(OC)c1OC` [Compound 54] and `CNCCN(C)Cc1c[nH]nc1-c1c(OC)cccc1OC` [Compound 56] cannot be ordered by IC50: greater than 10 µM for the first, greater than 10 µM for the second.

`CNCCN(C)Cc1cn(CCC(O)CO)nc1-c1ccc(F)cc1` (stereo not shown) [Compound 59] and `CN(CCN)Cc1cn(CC(O)CO)nc1-c1ccc(F)cc1` (stereo not shown) [Compound 76] cannot be ordered by IC50: greater than 10 µM for the first, greater than 10 µM for the second.

`COCCn1cc(CN(C)CCN(C)C)c(-c2ccc(F)cc2)n1` [Compound 61] and `COCCn1ncc(CN(C)CCN(C)C)c1-c1ccc(F)cc1` [Compound 64] cannot be ordered by IC50: greater than 10 µM for the first, greater than 10 µM for the second.

`CCCN(CCN)Cc1c[nH]nc1-c1ccc(F)cc1` [Compound 63] and `CC(C)N(CCN)Cc1c[nH]nc1-c1ccc(F)cc1` [Compound 75] cannot be ordered by IC50: greater than 10 µM for the first, greater than 10 µM for the second.

`CN(CCN)Cc1cnn(CCO)c1-c1ccc(F)cc1` [Compound 65] and `CN(CCN)Cc1cnn(CC2COC2)c1-c1ccc(F)cc1` [Compound 80] cannot be ordered by IC50: greater than 10 µM for the first, greater than 10 µM for the second.

`CC(C)Oc1ccc(-c2n[nH]cc2CN(C)CCN)cc1` [Compound 67] and `CN(CCN)Cc1c[nH]nc1-c1ccc(OC(F)F)cc1` [Compound 94] fall in the same range of IC50: 3.01 to 10 µM for the first, 3.01 to 10 µM for the second.

`CN(CCN)Cc1n[nH]cc1-c1ccc(F)cc1` [Compound 69] and `CN(CCN)Cc1c[nH]nc1-c1cccc(F)c1` [Compound 71] cannot be ordered by IC50: greater than 10 µM for the first, greater than 10 µM for the second.

`CN(CCN)Cc1c[nH]nc1-c1cccc(C#N)c1` [Compound 70] and `CN(CCN)Cc1c[nH]nc1-c1ccccc1` [Compound 73] cannot be ordered by IC50: greater than 10 µM for the first, greater than 10 µM for the second.

First: CN(CCN)Cc1c[nH]nc1-c1ccccc1F [Compound 72]
Second: CN(CCN)Cc1c[nH]nc1-c1ccc(F)cc1Cl [Compound 89]
The IC50 of the first is higher: greater than 10 µM for the first, 3.01 to 10 µM for the second. The second is the more potent here.

First: CN(CCN)Cc1c[nH]nc1-c1ccc(C(C)(C)C)cc1 [Compound 74]
Second: CN(CCN)Cc1c[nH]nc1-c1ccc(C(F)(F)F)cc1 [Compound 92]
The IC50 of the first is higher: greater than 10 µM for the first, 3.01 to 10 µM for the second. The second is the more potent here.

First: CN(CCN)Cc1cn(C2COC2)nc1-c1ccc(F)cc1 [Compound 77]
Second: CN(CCN)Cc1cnn(C2COC2)c1-c1ccc(F)cc1 [Compound 81]
The IC50 of the first is lower: 3.01 to 10 µM for the first, greater than 10 µM for the second.

Compared with `NCCN(Cc1c[nH]nc1-c1ccc(F)cc1)C1CC1` [Compound 78], `CN(CCN)Cc1c[nH]nc1-c1ccc(N2CCNCC2)cc1` [Compound 82] is lower in IC50: greater than 10 µM for the first, 1.01 to 3 µM for the second.

`CN(CCN)Cc1nn(C)cc1-c1ccc(C#N)cc1` [Compound 83] and `CN(CCN)Cc1c(-c2ccc(C#N)cc2)cnn1C` [Compound 84] cannot be ordered by IC50: greater than 10 µM for the first, greater than 10 µM for the second.

First: CN(CCN)Cc1c[nH]nc1-c1ccc(C(F)(F)F)cc1C(F)(F)F [Compound 85]
Second: CN(CCN)Cc1c[nH]nc1-c1ccc(Cl)cc1Cl [Compound 86]
The IC50 of the first is higher: greater than 10 µM for the first, 3.01 to 10 µM for the second.

First: COc1ccc(-c2n[nH]cc2CN(C)CCN)c(OC)c1 [Compound 87]
Second: Cc1ccc(-c2n[nH]cc2CN(C)CCN)c(C)c1 [Compound 88]
The IC50 of the first is higher: greater than 10 µM for the first, 3.01 to 10 µM for the second. The second is the more potent here.

First: Cc1ccc(-c2n[nH]cc2CN(C)CCN)c(Cl)c1 [Compound 90]
Second: Cc1ccc(Cl)c(-c2n[nH]cc2CN(C)CCN)c1 [Compound 91]
The IC50 of the first is lower: 3.01 to 10 µM for the first, greater than 10 µM for the second.

`CC(C)Oc1ccc(-c2n[nH]cc2CN(C)CCN)cc1Cl` [Compound 168] was tested, and the IC50 was 3.01 to 10 µM.

— US9346761B2, “Arginine methyltransferase inhibitors and uses thereof” (Epizyme, Inc., priority 2013, dated 2016)
